Experimental data from patent US20100035867A1 (priority 2006, published 2010).

Columns and labels:
guanylyl cyclase type C = guanylyl cyclase type C (Homo sapiens, UniProt P25092); details: literature comparator; read-out: potency (IC50); cited from earlier work
[1] = target: guanylyl cyclase type C (GC-C) (Homo sapiens, UniProt P25092); experiment: STa-induced activation of GC-C in T84 cells (cyclic GMP accumulation, ELISA); type: cell-based; design: endogenous in cells; host or cells: T84 cells
Sequence of guanylyl cyclase type C (GC-C) (P25092 24-1073): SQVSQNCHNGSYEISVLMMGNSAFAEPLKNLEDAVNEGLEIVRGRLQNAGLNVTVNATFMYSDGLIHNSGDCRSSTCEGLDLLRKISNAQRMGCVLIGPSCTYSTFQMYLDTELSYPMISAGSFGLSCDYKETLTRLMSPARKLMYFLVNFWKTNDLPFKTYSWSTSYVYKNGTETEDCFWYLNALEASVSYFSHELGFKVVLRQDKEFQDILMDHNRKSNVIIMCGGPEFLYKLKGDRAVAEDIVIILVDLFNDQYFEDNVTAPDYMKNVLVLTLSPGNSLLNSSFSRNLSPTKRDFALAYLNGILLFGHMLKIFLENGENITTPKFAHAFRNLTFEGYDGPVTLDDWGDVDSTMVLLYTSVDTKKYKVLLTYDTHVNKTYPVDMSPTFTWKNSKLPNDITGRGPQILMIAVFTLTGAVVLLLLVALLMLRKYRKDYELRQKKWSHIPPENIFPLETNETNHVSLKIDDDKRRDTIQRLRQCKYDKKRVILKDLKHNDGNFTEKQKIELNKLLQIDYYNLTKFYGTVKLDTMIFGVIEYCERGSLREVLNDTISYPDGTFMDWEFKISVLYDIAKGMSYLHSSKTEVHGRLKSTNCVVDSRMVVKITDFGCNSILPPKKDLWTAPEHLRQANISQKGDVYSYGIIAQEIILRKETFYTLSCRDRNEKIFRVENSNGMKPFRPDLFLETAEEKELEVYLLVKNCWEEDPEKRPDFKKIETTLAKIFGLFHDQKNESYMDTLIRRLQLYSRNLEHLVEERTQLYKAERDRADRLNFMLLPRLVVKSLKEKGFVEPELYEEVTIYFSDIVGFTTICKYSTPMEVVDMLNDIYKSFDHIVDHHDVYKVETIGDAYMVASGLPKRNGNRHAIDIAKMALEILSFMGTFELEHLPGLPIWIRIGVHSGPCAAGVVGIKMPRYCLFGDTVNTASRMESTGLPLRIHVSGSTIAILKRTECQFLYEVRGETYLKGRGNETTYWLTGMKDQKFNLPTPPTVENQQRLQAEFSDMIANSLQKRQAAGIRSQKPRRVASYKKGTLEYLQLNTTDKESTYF

[2] = test system: adenylyl cyclase or guanylyl cyclase; type: cell-based; details: read-out: typical IC50

Sequence of guanylyl cyclase type C (P25092 24-1073): as above

SMILES | inhibition of STa-induced activation of GC-C (FIG. 2) [1] | other results
Nc1nc(Cl)nc2c1ncn2[C@@H]1O[C@H](CO)[C@@H](O)[C@H]1O [2-chloroadenosine] | – | IC50 (guanylyl cyclase type C): ~50 µM
Cn1c2c(c(=O)n(C)c1=O)C(c1ccc(O)c(O)c1)C1C(=O)c3ccccc3C1=N2 (centres unmarked) [IIIa] | inhibition | –
Cn1c2c(c(=O)n(C)c1=O)C(c1ccc(O)c(O)c1)C1=C(N2)c2ccccc2C1=O (centres unmarked) [IIIb] | inhibition | –
COc1cc(C2C3=C(Nc4c2c(=O)n(C)c(=O)n4C)c2ccccc2C3=O)ccc1O (centres unmarked) [IVb] | inhibition | –
CC(C)C(=O)N1C2=C(C(=O)c3ccccc32)C(c2ccc(Cl)cc2)c2c1n(C)c(=O)n(C)c2=O (centres unmarked) [VII] | inhibition | –
CCCC(=O)N1C2=C(C(=O)c3ccccc32)C(c2ccc(Cl)cc2)c2c1n(C)c(=O)n(C)c2=O (centres unmarked) [VI] | inhibition | –
CCOc1cc(C2C3=C(Nc4c2c(=O)n(C)c(=O)n4C)c2ccccc2C3=O)ccc1O (centres unmarked) [Vb] | inhibition | –
Cn1c2c(c(=O)n(C)c1=O)C(c1cccc(Br)c1)C1C(=O)c3ccccc3C1=N2 (centres unmarked) [compound IIa, 5-(3-bromophenyl)-1,3-dimethyl-5,11-dihydro-1H-indeno[2′,1′:5,6]pyrido[2,3-d]pyrimidine-2,4,6-trione] | inhibition | inhibition at 50 µM ([1]; 100 nM STa, 50 μM compound): 87.1%; level of cyclic GMP ([1]; 100 nM STa, 50 μM compound, vehicle 124±10, basal 6±2): 21±4 pmol/mg protein; IC50 [2]: ~5 µM
